In patent US9624169B2, “Aryl- and heteroaryl-pyrrolidine-2-carboxamide compounds” (SciFluor Life Sciences, Inc., priority 2015, dated 2017):

System: formalin induced pain
Experiment: Formalin induced pain model in rats (flinching, lifting, licking, biting and trembling of injected paw)
Settings: for Effect on the flinching response (in words): at tested dose levels; for Effect on duration of paw lifting post-formalin injection (in words): all dose levels; for Effect on all testing behaviors (lifting, licking, biting and trembling) post-formalin injection (in words): all tested dose levels
[1] = Phase 1, group 4, 3 mg/ml (Table 2: 3 mg/kg P.O.)
[2] = Phase 1, group 5, 10 mg/ml (Table 2: 10 mg/kg P.O.)
[3] = Phase 1, group 6, 30 mg/ml (Table 2: 30 mg/kg P.O.)
[4] = Phase 2, group 4, 3 mg/ml (Table 2: 3 mg/kg P.O.)
[5] = Phase 2, group 5, 10 mg/ml (Table 2: 10 mg/kg P.O.)
[6] = Phase 2, group 6, 30 mg/ml (Table 2: 30 mg/kg P.O.)
[7] = phase 1, control compounds, Compound 1A at 3 mg/kg
[8] = Phase 1, group 3, 100 mg/ml (Table 2: 100 mg/kg P.O.)
[9] = Phase 2, group 3, 100 mg/ml (Table 2: 100 mg/kg P.O.)
[10] = Phase 1, group 2, 1 mg/ml (Table 2: 1 mg/kg I.P.)
[11] = Phase 2, group 2, 1 mg/ml (Table 2: 1 mg/kg I.P.)

Compound: NC(=O)[C@@H]1CC[C@H](c2ccc(OC(c3ccccc3F)C(F)(F)F)cc2)N1 (stereo partly drawn) [Compound 1A, (2S,5R)-5-(4-(2,2,2-trifluoro-1-(2-fluorophenyl)ethoxy)phenyl)pyrrolidine-2-carboxamide]
- Group Mean of Average Duration of Licking, Biting and Trembling [1]: 34.2 ± 26.8 No. per 5 min
- Group Mean of Average Duration of Lifting [1]: 37.1 ± 43.8 No. per 5 min
- Group Mean of Average Flinching Response [1]: 15.2 ± 11.3 No. per 5 min
- Group Mean of Total Testing Behavior [1]: 71.3 ± 56.4 No. per 5 min
- Group Mean of Average Duration of Licking, Biting and Trembling [2]: 21.9 ± 25.1 No. per 5 min
- Group Mean of Average Duration of Lifting [2]: 17.3 ± 22.8 No. per 5 min
- Group Mean of Average Flinching Response [2]: 10.5 ± 3.7 No. per 5 min
- Group Mean of Total Testing Behavior [2]: 39.2 ± 27.5 No. per 5 min
- Group Mean of Average Duration of Licking, Biting and Trembling [3]: 17.4 ± 13.0 No. per 5 min
- Group Mean of Average Duration of Lifting [3]: 21.3 ± 25.2 No. per 5 min
- Group Mean of Average Flinching Response [3]: 22.0 ± 7.7 No. per 5 min
- Group Mean of Total Testing Behavior [3]: 38.7 ± 31.8 No. per 5 min
- Group Mean of Average Duration of Licking, Biting and Trembling [4]: 32.6 ± 27.6 No. per 5 min
- Group Mean of Average Duration of Lifting [4]: 8.2 ± 10.4 No. per 5 min
- Group Mean of Average Flinching Response [4]: 16.0 ± 10.2 No. per 5 min
- Group Mean of Total Testing Behavior [4]: 40.8 ± 34.3 No. per 5 min
- Group Mean of Average Duration of Licking, Biting and Trembling [5]: 20.7 ± 10.5 No. per 5 min
- Group Mean of Average Duration of Lifting [5]: 5.1 ± 6.2 No. per 5 min
- Group Mean of Average Flinching Response [5]: 16.6 ± 7.3 No. per 5 min
- Group Mean of Total Testing Behavior [5]: 25.8 ± 15.1 No. per 5 min
- Group Mean of Average Duration of Licking, Biting and Trembling [6]: 22.9 ± 14.5 No. per 5 min
- Group Mean of Average Duration of Lifting [6]: 6.1 ± 6.7 No. per 5 min
- Group Mean of Average Flinching Response [6]: 22.3 ± 12.5 No. per 5 min
- Group Mean of Total Testing Behavior [6]: 29.0 ± 16.4 No. per 5 min
- Effect on the flinching response (in words): no effect
- Effect on duration of paw lifting post-formalin injection (in words) (phase 1): no effects
- Effect on all testing behaviors (lifting, licking, biting and trembling) post-formalin injection (in words) (phase 1): no any effects
- Effect on duration of licking, biting and trembling post-formalin injection (in words) [7]: neither the control compounds (morphine and gabapentin) nor Compound 1A (at 3 mg/kg) had any effects
- Effect on duration of paw lifting post-formalin injection (in words) (phase 2): significant effect on inhibiting
- Effect on all testing behaviors (lifting, licking, biting and trembling) post-formalin injection (in words) (phase 2): significantly reduced
- Overall effect post formalin-induced pains (in words) (phase 2 observation period, especially at 10 mg/kg and 30 mg/kg): anti-nociceptive effects
- Activity in the formalin pain model (in words) (rat, in vivo): active

Compound: NCC1(CC(=O)O)CCCCC1 [Gabapentin, reference compound]
- Group Mean of Average Duration of Licking, Biting and Trembling [8]: 26.9 ± 14.7 No. per 5 min
- Group Mean of Average Duration of Lifting [8]: 39.8 ± 41.5 No. per 5 min
- Group Mean of Average Flinching Response [8]: 11.5 ± 5.7 No. per 5 min
- Group Mean of Total Testing Behavior [8]: 66.6 ± 34.8 No. per 5 min
- Group Mean of Average Duration of Licking, Biting and Trembling [9]: 17.1 ± 9.1 No. per 5 min
- Group Mean of Average Duration of Lifting [9]: 20.7 ± 23.2 No. per 5 min
- Group Mean of Average Flinching Response [9]: 16.0 ± 13.3 No. per 5 min
- Group Mean of Total Testing Behavior [9]: 37.8 ± 23.7 No. per 5 min
- Effect on the flinching response (in words): no effect
- Overall effect of control compounds on formalin induced pain model (in words) (control compounds): consistent effect of inhibiting nociceptive pain
- Effect on duration of paw lifting post-formalin injection (in words) (phase 1): no effects
- Effect on all testing behaviors (lifting, licking, biting and trembling) post-formalin injection (in words) (phase 1): no any effects
- Effect on duration of licking, biting and trembling post-formalin injection (in words) [7]: neither the control compounds (morphine and gabapentin) nor Compound 1A (at 3 mg/kg) had any effects
- Effect on duration of licking, biting and trembling post-formalin injection (in words) (phase 2, 100 mg/kg): significantly decreased
- Effect on duration of paw lifting post-formalin injection (in words) (phase 2): significant effect on inhibiting
- Effect on all testing behaviors (lifting, licking, biting and trembling) post-formalin injection (in words) (phase 2): significantly reduced

Compound: CN1CC[C@]23c4c5ccc(O)c4O[C@H]2[C@@H](O)C=C[C@H]3[C@H]1C5 [morphine, reference compound]
- Group Mean of Average Duration of Licking, Biting and Trembling [10]: 20.5 ± 13.1 No. per 5 min
- Group Mean of Average Duration of Lifting [10]: 37.8 ± 27.7 No. per 5 min
- Group Mean of Average Flinching Response [10]: 10.8 ± 7.7 No. per 5 min
- Group Mean of Total Testing Behavior [10]: 58.3 ± 37.7 No. per 5 min
- Group Mean of Average Duration of Licking, Biting and Trembling [11]: 12.1 ± 7.2 No. per 5 min
- Group Mean of Average Duration of Lifting [11]: 3.2 ± 4.4 No. per 5 min
- Group Mean of Average Flinching Response [11]: 12.3 ± 6.9 No. per 5 min
- Group Mean of Total Testing Behavior [11]: 15.3 ± 9.0 No. per 5 min
- Effect on the flinching response (in words): no effect
- Overall effect of control compounds on formalin induced pain model (in words) (control compounds): consistent effect of inhibiting nociceptive pain
- Effect on duration of paw lifting post-formalin injection (in words) (phase 1): no effects
- Effect on all testing behaviors (lifting, licking, biting and trembling) post-formalin injection (in words) (phase 1): no any effects
- Effect on duration of licking, biting and trembling post-formalin injection (in words) [7]: neither the control compounds (morphine and gabapentin) nor Compound 1A (at 3 mg/kg) had any effects
- Effect on duration of licking, biting and trembling post-formalin injection (in words) (phase 2, 1 mg/kg): significantly decreased
- Effect on duration of paw lifting post-formalin injection (in words) (phase 2): significant effect on inhibiting
- Effect on all testing behaviors (lifting, licking, biting and trembling) post-formalin injection (in words) (phase 2): significantly reduced
